Patent EP4389827A1, “AMINOGLYCOSIDE-LINKED PHOTOSENSITIZERS” (Centre National de la Recherche Scientifique, priority 2022, dated 2024)
“And” between values parts separate entries of the source, which are not always exact repeats. Equal entries are not always repeated. Where two headings read alike, the source gives them in different places.

Experiments:
[1] = system: A. baumannii DSM30011; experiment: Antibacterial photodynamic therapy on biofilm cells; assay type: cell-based, Acinetobacter baumannii
Description: (§1) Compounds Neo-Ce6 and Tobra-Ce6 caused strong drop in survival for biofilms of A. baumannii […], P. aeruginosa species and S. aureus Mu50. […] Tobra-Ce6 had its strongest effect on A. baumannii DSM30011 with more than 4 log10 CFU/mL drop in survival and a drop of 1.7 log10 CFU/mL in P. aeruginosa PA14. Table 2: aPDT results for biofilm cells expressed in drop in the log10 CFU/mL compared to controls.

[2] = system: A. baumannii DSM30011; experiment: Minimal inhibitory concentration (EUCAST), with or without 660 nm irradiation; assay type: cell-based, Acinetobacter baumannii; settings: for MIC: Acinetobacter baumannii, DSM30011, light or radiation study, 18 h, read-out: MIC
Description: (§2) Acinetobacter baumannii DSM30011, Bacillus subtilis 168, Pseudomonas aeruginosa PA14, P. aeruginosa PAO1, Staphylococcus aureus Mu50, S. aureus Newman and S. aureus USA300 were all grown in MHB-CA at 37°C with an agitation of 180 rpm. Candida albicans SC5314 was grown in yeast extract peptone dextrose broth at 35°C with an agitation of 180 rpm.
(§3) Minimal inhibitory concentrations (MICs) for selected bacteria were investigated according to the EUCAST guidelines. Serial dilutions of the compounds, photosensitizers and aminoglycosides were made in MHB-CA in 384-well plates. Stationary-phase cells were diluted in MHB-CA to have a final concentration of 5.5 × 10^5 CFU/mL. Samples were incubated in the dark for 20 minutes at 37°C and either irradiated at 660 nm for 30 minutes with a LED device or kept in the dark. Irradiated samples received a total of 168 mJ/mm^2. Plates were then incubated at 37°C for 18 hours and MICs were evaluated visually. Triplicates were done and the synergy, or fractional inhibitory concentration (FIC), was calculated according to Doern et al., 2014: FIC = (MIC of AB)/(MIC of A) + (MIC of AB)/(MIC of B) [formula]

[3] = system: S. aureus Mu50; experiment: Antibacterial photodynamic therapy on biofilm cells; assay type: cell-based, Staphylococcus aureus
Description: as §1

[4] = system: S. aureus USA300; experiment: as above; assay type: cell-based, Staphylococcus aureus
Description: as §1

[5] = system: S. aureus Newman; experiment: as above; assay type: cell-based, Staphylococcus aureus
Description: as §1

[6] = system: P. aeruginosa PAO1; experiment: as above; assay type: cell-based, Pseudomonas aeruginosa
Description: as §1

[7] = system: P. aeruginosa PA14; experiment: as above; assay type: cell-based, Pseudomonas aeruginosa
Description: as §1

[8] = system: P. aeruginosa PAO1; experiment: Minimal inhibitory concentration (EUCAST), with or without 660 nm irradiation; assay type: cell-based, Pseudomonas aeruginosa; settings: for MIC: Pseudomonas aeruginosa, PAO1, light or radiation study, 18 h, read-out: MIC
Description: as §2, §3

[9] = system: P. aeruginosa PA14; experiment: as above; assay type: cell-based, Pseudomonas aeruginosa; settings: for MIC: read-out: MIC
Description: as §2, §3

[10] = system: S. aureus Mu50; experiment: as above; assay type: cell-based; settings: Staphylococcus aureus, MU50, light or radiation study, 18 h, read-out: MIC
Description: as §2, §3

[11] = system: S. aureus USA300; experiment: as above; assay type: cell-based; settings: Staphylococcus aureus, USA300, light or radiation study, 18 h
Description: as §2, §3

[12] = system: S. aureus Newman; experiment: as above; assay type: cell-based, Staphylococcus aureus; settings: for MIC: Staphylococcus aureus, NEWMAN, light or radiation study, 18 h, read-out: MIC
Description: as §2, §3

[13] = Solubility in water; assay type: physicochemical
[14] = system: S. aureus USA300; experiment: Antibacterial photodynamic therapy on planktonic cells (CFU count); assay type: cell-based; settings: Staphylococcus aureus, USA300, light or radiation study, 0.5 h, irradiated 660 nm 30 minutes, 5 J/mm^2, read-out: Mean CFU drop (survival dropped by)
Description: as §2
(§4) Cells were brought to stationary phase by incubating them in MHB-CA for at least 18 hours at 37°C with 180 rpm and diluted to an optical density of 1.0 just before the experiment. Cells were incubated for 20 minutes with either the compounds, photosensitizers alone, or aminoglycosides alone. Unless stated otherwise, a concentration of 10 µM was used for all experiments and samples were irradiated for 30 minutes at 660 nm with the Solis-660C lamp from ThorLabs, receiving a total of 5 J/mm^2. After illumination, cells were washed with phosphate-buffered saline (PBS) 1X, serially diluted and plated on Mueller-Hinton agar. The next day, colony forming units (CFUs) were counted.

[15] = system: S. aureus Mu50; experiment: as above; assay type: cell-based, Staphylococcus aureus; settings: for log reduction at 10 µM: Staphylococcus aureus, MU50, light or radiation study, 0.5 h, irradiated 660 nm 30 minutes, 5 J/mm^2, read-out: Mean CFU drop (survival dropped by)
Description: as §2, §4

[16] = system: S. aureus Newman; experiment: as above; assay type: cell-based, Staphylococcus aureus; settings: Staphylococcus aureus, NEWMAN, light or radiation study, 0.5 h, 10 µM, irradiated 660 nm 30 minutes, 5 J/mm^2, read-out: Mean CFU drop (survival dropped by)
Description: as §2, §4

[17] = with (+) irradiation, 660 nm 30 minutes, 168 mJ/mm^2
[18] = conjugate with irradiation, from FIC

Compound	drop in the log10 CFU/mL compared to controls ([1]; - irradiation)	MIC [2, 17]	MIC ([2]; without (-) irradiation)	drop in the log10 CFU/mL compared to controls ([3]; + irradiation)	drop in the log10 CFU/mL compared to controls ([3]; - irradiation)	drop in the log10 CFU/mL compared to controls ([4]; + irradiation)	drop in the log10 CFU/mL compared to controls ([4]; - irradiation)	drop in the log10 CFU/mL compared to controls ([5]; + irradiation)	drop in the log10 CFU/mL compared to controls ([5]; - irradiation)	drop in the log10 CFU/mL compared to controls ([6]; + irradiation)	drop in the log10 CFU/mL compared to controls ([6]; - irradiation)	drop in the log10 CFU/mL compared to controls ([7]; + irradiation)	drop in the log10 CFU/mL compared to controls ([7]; - irradiation)	MIC [8, 17]	MIC ([8]; without (-) irradiation)	MIC [10, 17]	MIC ([10]; without (-) irradiation)	MIC [11, 17]	MIC ([11]; without (-) irradiation)	MIC [12, 17]	also measured
C=Cc1c(C)c2cc3nc(c(CC(=O)O)c4[nH]c(cc5nc(cc1[nH]2)C(C)=C5CC)c(C)c4C(=O)O)[C@@H](CCC(=O)O)[C@@H]3C [Ce6, chlorin e6]	0.45 log10 CFU/mL	> 64 µM	> 64 µM	0.36 log10 CFU/mL	-0.005 log10 CFU/mL	0.73 log10 CFU/mL	0.33 log10 CFU/mL	0.57 log10 CFU/mL	-0.19 log10 CFU/mL	0.25 log10 CFU/mL	0.28 log10 CFU/mL	0.60 log10 CFU/mL	0.29 log10 CFU/mL	> 64 µM	> 64 µM	4 µM	> 64 µM	16 to 32 µM	> 64 µM	64 µM	drop in the log10 CFU/mL compared to controls ([1]; + irradiation): 0.71 log10 CFU/mL; MIC ([9]; Pseudomonas aeruginosa, PA14, light or radiation study, 18 h, without (-) irradiation): > 64 µM; MIC [9, 17]: > 64 µM; MIC ([12]; without (-) irradiation): > 64 µM; solubility [13]: poorly soluble in water; log reduction at 10 µM [14]: 3.2; log reduction at 10 µM [15]: 3.2; log reduction at 10 µM [16]: ~3.6
C=Cc1c(C)c2cc3nc(c(CC(=O)O)c4[nH]c(cc5nc(cc1[nH]2)C(C)=C5CC)c(C)c4C(=O)O)[C@@H](CCC(=O)NC[C@H]1O[C@H](O[C@@H]2[C@@H](O)[C@H](O[C@H]4O[C@H](CN)[C@@H](O)C[C@H]4N)[C@@H](N)C[C@H]2N)[C@H](O)[C@@H](N)[C@@H]1O)[C@@H]3C [Tobra-Ce6]	1.58 log10 CFU/mL	2 to 4 µM	> 16 µM	1.32 log10 CFU/mL	0.37 log10 CFU/mL	0.14 log10 CFU/mL	0.28 log10 CFU/mL	1.36 log10 CFU/mL	0.49 log10 CFU/mL	1.25 log10 CFU/mL	0.79 log10 CFU/mL	1.7 log10 CFU/mL and 1.69 log10 CFU/mL	0.85 log10 CFU/mL	4 to 8 µM	> 16 µM	2 to 4 µM	16 µM	2 to 4 µM	> 16 µM	2 µM	Synergy [2, 18]: +; Synergy [8, 18]: -; MIC ([9]; Pseudomonas aeruginosa, PA14, light or radiation study, 18 h, with (+) irradiation, 660 nm 30 minutes, 168 mJ/mm^2): > 16 µM; Synergy [9, 18]: -; MIC ([9]; without (-) irradiation): > 16 µM; MIC ([12]; without (-) irradiation): > 16 µM; Synergy [12, 18]: +; solubility [13]: highly soluble; log reduction at 10 µM [14]: 3.5; log reduction at 10 µM [15]: 5.4; survival (in words) ([15]; irradiated samples, 5 J/mm^2 (Figure 3a)): high bacterial death; log reduction at 10 µM [16]: ~3.9
